Data published in ChEMBL document CHEMBL1201862, “PubChem BioAssay data set” (2004).
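Compound exposure: 48 hours, 5 concentrations, 96-well plates. GI50 = concentration required for 50% inhibition of growth.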 The source made the active and inactive calls. No stated cut-off is given here; in the data, active = GI50 up to about 1.1 µM and inactive = higher.

What was measured:
Assay in all cases: NCI anticancer screen, dose series, 48 h
ACHN = tested on: ACHN
CAKI-1 = tested on: CAKI-1
COLO 205 = tested on: COLO 205
DU-145 = tested on: DU-145
HCT-15 = tested on: HCT-15
HOP-62 = tested on: HOP-62
HT-29 = tested on: HT-29
Hs-578T = tested on: Hs-578T
MCF7 = tested on: MCF7
MDA-MB-435 = tested on: MDA-MB-435
MOLT-4 = tested on: MOLT-4
NCI/ADR-RES = tested on: NCI/ADR-RES
OVCAR-3 = tested on: OVCAR-3
OVCAR-8 = tested on: OVCAR-8
PC-3 = tested on: PC-3
SF-295 = tested on: SF-295
SNB-75 = tested on: SNB-75
T47D = tested on: T47D
UACC-257 = tested on: UACC-257

Measured: GI50

O=C(Cn1ccc(=O)[nH]c1=O)Nc1ccc(C(=O)O)c(O)c1
inactive: ACHN > 100 µM | CAKI-1 > 100 µM | COLO 205 > 100 µM | DU-145 > 100 µM | HOP-62 26.2 µM | HT-29 > 100 µM | Hs-578T > 100 µM | MCF7 > 100 µM | MDA-MB-435 > 100 µM | MOLT-4 > 100 µM | NCI/ADR-RES > 100 µM | OVCAR-3 > 100 µM | OVCAR-8 > 100 µM | PC-3 > 100 µM | SF-295 18.2 µM | SNB-75 > 100 µM | T47D > 100 µM | UACC-257 > 100 µM
> 100 µM: HCT-15

Cc1nn(-c2ccccc2)c2c1CC(=O)Nc1ccccc1-2
inactive: CAKI-1 2.82 µM | DU-145 2.65 µM | HOP-62 3.15 µM | OVCAR-8 2.06 µM | T47D > 10 µM
0.618 µM: HCT-15
active: ACHN 1.05 µM | COLO 205 0.538 µM | HT-29 0.424 µM | Hs-578T 0.522 µM | MCF7 0.372 µM | MDA-MB-435 0.204 µM | MOLT-4 0.522 µM | NCI/ADR-RES 0.413 µM | OVCAR-3 0.482 µM | PC-3 0.679 µM | SF-295 0.318 µM | SNB-75 0.482 µM | UACC-257 0.555 µM

Cc1c(CCOC=O)c(=O)[nH]c2nncn12
> 100 µM: HCT-15
inactive: ACHN > 100 µM | CAKI-1 > 10 µM | COLO 205 > 100 µM | DU-145 > 100 µM | HOP-62 > 100 µM | HT-29 > 100 µM | Hs-578T > 100 µM | MCF7 > 100 µM | MDA-MB-435 > 100 µM | MOLT-4 > 100 µM | NCI/ADR-RES > 100 µM | OVCAR-3 > 100 µM | OVCAR-8 > 100 µM | PC-3 > 100 µM | SF-295 > 100 µM | SNB-75 > 100 µM | T47D > 100 µM | UACC-257 > 100 µM

CCCCCCc1nn2c(-c3ccc(C)cc3)nnc2s1
> 100 µM: HCT-15
inactive: ACHN > 100 µM | CAKI-1 > 100 µM | COLO 205 > 100 µM | DU-145 > 100 µM | HOP-62 > 100 µM | HT-29 > 100 µM | Hs-578T > 100 µM | MCF7 > 100 µM | MDA-MB-435 > 100 µM | MOLT-4 46.2 µM | NCI/ADR-RES > 100 µM | OVCAR-3 > 100 µM | OVCAR-8 68.9 µM | PC-3 56.1 µM | SF-295 > 100 µM | SNB-75 > 100 µM | T47D 58.7 µM | UACC-257 42.1 µM

CC(=O)N(CN1C(=O)CCC1C(=O)O)c1ccc(C)cc1 (stereo not drawn)
> 100 µM: HCT-15
inactive: ACHN > 100 µM | CAKI-1 > 100 µM | COLO 205 > 100 µM | DU-145 > 100 µM | HOP-62 > 100 µM | HT-29 > 100 µM | Hs-578T > 100 µM | MCF7 > 100 µM | MDA-MB-435 > 100 µM | MOLT-4 > 100 µM | NCI/ADR-RES > 100 µM | OVCAR-3 > 100 µM | OVCAR-8 > 100 µM | PC-3 > 100 µM | SF-295 > 100 µM | SNB-75 > 100 µM | T47D > 100 µM | UACC-257 > 100 µM

COC(=O)c1cc2c3c(c(C(C)=O)c(OC)c2[nH]1)NCC3
inactive: ACHN > 50 µM | CAKI-1 > 50 µM | COLO 205 > 50 µM | DU-145 > 50 µM | HOP-62 > 50 µM | HT-29 > 50 µM | Hs-578T > 50 µM | MCF7 > 50 µM | MDA-MB-435 > 50 µM | MOLT-4 > 50 µM | NCI/ADR-RES > 50 µM | OVCAR-3 > 50 µM | OVCAR-8 > 50 µM | PC-3 > 50 µM | SF-295 > 50 µM | SNB-75 > 50 µM | T47D > 50 µM | UACC-257 > 50 µM
> 50 µM: HCT-15

CN(C)N1C(=O)SCC(c2ccccc2)(c2ccccc2)C1=O
inactive: ACHN > 100 µM | CAKI-1 > 100 µM | COLO 205 > 100 µM | DU-145 > 100 µM | HOP-62 > 100 µM | HT-29 > 100 µM | Hs-578T > 100 µM | MCF7 54.8 µM | MDA-MB-435 > 100 µM | MOLT-4 > 100 µM | NCI/ADR-RES > 100 µM | OVCAR-3 > 100 µM | OVCAR-8 > 100 µM | PC-3 > 100 µM | SF-295 > 100 µM | SNB-75 60.1 µM | T47D > 100 µM | UACC-257 > 100 µM
> 100 µM: HCT-15
